Assay results from ChEMBL document CHEMBL1681643 (Bioorg Med Chem Lett, 2011).
≈ marks a conversion by molar mass, not a printed value. Calls of active or inactive are those of the source. The calls are words filed in the database; no cut-off is given here. Non-standard residues stand in square brackets, D forms with d. Residues, ends and D or L forms follow the SMILES beside them. *: point of attachment. S(CH2)2OCO2(CPT-20-yl) = CC[C@@]1(OC(=O)OCCS*)C(=O)OCc2c1cc1n(c2=O)Cc2cc3ccccc3nc2-1; Ahx = NCCCCCC(=O)O

What was measured:
[1] = Solubility of the compound in phosphate buffer at pH 7.4; assay type: physicochemical
[2] = system: U-87MG ATCC; test: Anticancer activity against NK1R overexpressing human U87MG cells assessed as cell viability after 72 hrs by MTT assay; assay type: functional, cell-based
[3] = system: U-251; test: Anticancer activity against NK1R overexpressing human U251MG cells assessed as cell viability after 72 hrs by MTT assay; assay type: functional, cell-based
[4] = system: MCF7; test: Anticancer activity against NK1R overexpressing human MCF7 cells assessed as cell viability after 72 hrs by MTT assay; assay type: functional, cell-based
[5] = system: MDA-MB-231; test: Anticancer activity against NK1R overexpressing human MDA-MB-231 cells assessed as cell viability after 72 hrs by MTT assay; assay type: functional, cell-based
[6] = system: CHO; test: Cytotoxicity against NK1R overexpressing CHO cells assessed as cell viability after 72 hrs by MTT assay; assay type: functional, cell-based; details: Cricetulus griseus
[7] = system: CHO; test: Cytotoxicity against CHO cells assessed as cell proliferation after 72 hrs by MTT assay; assay type: cell-based, Cricetulus griseus; details: chinese hamster
[8] = system: CHO; test: Drug uptake in CHO cells at 10 uM after 30 mins by confocal microscopy; assay type: ADME, cell-based, Cricetulus griseus; details: chinese hamster, 0.5 h
[9] = system: CHO; test: Drug uptake in NK1R overexpressing CHO cells at 10 uM after 30 mins by confocal microscopy; assay type: ADME, cell-based, Cricetulus griseus; details: chinese hamster, 0.5 h
[10] = system: CHO; test: Cytotoxicity against CHO cells assessed as cell viability after 72 hrs by MTT assay; assay type: cell-based, Cricetulus griseus; details: chinese hamster

Row | SMILES | solubility [1] | Activity [2] | Activity [3] | Activity [4] | Activity [5] | Activity [6] | Activity [7] | Drug uptake [8] | Drug uptake [9] | Activity [10]
1 | CC[C@@]1(OC(=O)OCCSSC[C@H](N)C(=O)N[C@@H](CCCNC(=N)N)C(=O)N2CCC[C@H]2C(=O)N[C@@H](CCCCN)C(=O)N2CCC[C@H]2C(=O)N[C@@H](CCC(N)=O)C(=O)N[C@@H](CCC(N)=O)C(=O)N[C@@H](Cc2ccccc2)C(=O)N[C@@H](Cc2ccccc2)C(=O)NCC(=O)N[C@@H](CC(C)C)C(=O)N[C@@H](CCSC)C(N)=O)C(=O)OCc2c1cc1n(c2=O)Cc2cc3ccccc3nc2-1 | 103 µg/mL (≈ 54.2 µM) | Dose-dependent effect | Dose-dependent effect | Dose-dependent effect | Dose-dependent effect | Active | Not Active | Active | Active | 
2 | CC[C@@]1(O)C(=O)OCc2c1cc1n(c2=O)Cc2cc3ccccc3nc2-1 [CAMPTOTHECIN] | 2.7 µg/mL (≈ 7.75 µM) | Dose-dependent effect | Dose-dependent effect | Dose-dependent effect | Dose-dependent effect |  |  | Active | Active | Toxic
3 | CSCC[C@H](NC(=O)[C@H](CC(C)C)NC(=O)CNC(=O)[C@H](Cc1ccccc1)NC(=O)[C@H](Cc1ccccc1)NC(=O)[C@H](CCC(N)=O)NC(=O)CCCCCNC(=O)[C@@H](N)CS)C(N)=O (H-C[Ahx]QFFGLM-NH2) |  | inactive | inactive | inactive | inactive |  |  |  |  | 
4 | CC[C@@]1(OC(=O)OCCSSC[C@H](N)C(=O)NCCCCCC(=O)N[C@@H](CCC(N)=O)C(=O)N[C@@H](Cc2ccccc2)C(=O)N[C@@H](Cc2ccccc2)C(=O)NCC(=O)N[C@@H](CC(C)C)C(=O)N[C@@H](CCSC)C(N)=O)C(=O)OCc2c1cc1n(c2=O)Cc2cc3ccccc3nc2-1 (H-C(S(CH2)2OCO2(CPT-20-yl))[Ahx]QFFGLM-NH2) | 8.4 µg/mL (≈ 5.97 µM) | Dose-dependent effect | Dose-dependent effect | Dose-dependent effect | Dose-dependent effect | Active | Not Active | Active | Active | 
